Measured values as given in patent publication US7314864B1, “Humanin, a polypeptide suppressing neuronal death” (Keio University, priority 1999, dated 2008).
No end group written: not given here.

Assays:
[1] = tested on: primary cultured cortical neurons treated with Aβ1-43; assay: Aβ1-43-induced cell death of primary cultured cortical neurons, trypan blue exclusion assay; format: cell-based; conditions: 10 nM polypeptide; for effect on Aβ1-43-induced cell death: 25 μM Aβ1-43, confirmed by LDH release and Calcein staining
Procedure: Primary culture of mouse cortical neurons was performed in poly-D-lysine-coated 24-well plates (Sumitomo Bakelite) in the absence of serum and in the presence of N2 supplement, as described in literature (Ecksioglu, Y. Z. et al. (1994) Brain Res. 644, 282-90). The purity of neurons prepared according to the method was >98%. The prepared neurons (1.25×10^5/well, 250 μl media/well) were preincubated in the absence or presence of 10 nM or 10 μM sHN polypeptides for 16 hours; and were treated with 25 μM Aβ1-43 in the absence or presence of sHN polypeptides at the same concentrations for 24 to 72 hours. Since primary cultured neurons are damaged even by temporary dryness during medium exchange, treatment of the cells by Aβ1-43 was performed as follows. First, half of the volume of the old medium (125 μl) was discarded. Then, 125 μl of pre-warmed fresh medium containing 50 μM Aβ1-43 and sHN with a concentration indicated above were added to the culture.
(§1) Trypan blue exclusion assay was performed as follows. Without prewashing, the cells were suspended with gentle pipetting into a serum-free media. 50 μl of 0.4% trypan blue solution (Sigma, Cat. #T-8154) were added (final concentration of 0.08%) to 200 μl cell suspension, and the suspension was mixed at room temperature. Within 3 minutes of the trypan blue solution addition, stained cells were counted. Cell mortality was determined [100-cell survival rate (%)] based on the stained cell count. LDH assay was performed using a kit (LDH-Cytotoxic Test; Wako Pure Chemical Industries, Cat. #299-50601) by sampling 6 μl of media in which neurons were cultured. Calcein staining was performed as described in literature (Bozyczko-Coyne, D. et al. (1993) Journal of Neuroscience Methods 50, 205-216). Specifically, 6 μM Calcein-AM (3′, 6′-Di-(O-acetyl)-2′-7′-bis[N,N-bis(carboxymethyl)aminomethyl]fluorescein, tetraacetoxymethyl ester; Dojindo, Cat. #349-07201) was added to the neurons; and 30 minutes or longer after Calcein-AM treatment, fluorescence (ex=490 nm, em=515 nm) was observed by fluorescence microscopy, and measured by a spectrometer. Specific fluorescence was calculated by subtracting basal fluorescence from total fluorescence. Basal fluorescence was assigned to be the value calculated from linear trypan blue positivity-fluorescence intensity relationship, corresponding to 100% trypan blue positivity.

[2] = tested on: F11 cells transfected with V642I APP cDNA; assay: V642I APP-induced F11 cell death, trypan blue exclusion assay; format: cell-based; conditions: for suppression of V642I APP-induced cell death: 10 nM polypeptide
Procedure: (§2) F11 cells (Platika, D. et al. (1985) Proc. Natl. Acad. Sci. U.S.A. 82, 3499-3503; Yamatsuji, T. et al. (1996) Science 272, 1349-1352) were cultured in HamF-12 media containing 18% fetal bovine serum (FBS) and antibiotics. 7×10^4/well of F11 cells were seeded into a 6-well plate; cultured in HamF-12 containing 18% FBS for 12 to 16 hours; transfected 3 hours with plasmids encoding FAD genes and plasmids encoding HN (pHN, and such) by lipofection in the absence of serum (1 μg of FAD cDNA expression plasmid, 1 μg of HN cDNA expression plasmid, 4 μl of LipofectAMINE, 8 μl of Plus reagent); and then, were cultured for 2 hours in HamF-12 media containing 18% FBS. Then, culture media were exchanged with HamF-12 media containing 10% FBS; and the cells were cultured for additional 67 hours. 72 hours after transfection, cell death was measured by trypan blue exclusion assay. Experiments using synthetic HN polypeptides were conducted as follows: F11 cells (at 7×10^4/well in a 6-well plate) were transfected 3 hours with FAD genes in the absence of serum, as mentioned above; after cultivation for 2 hours in HamF-12 media containing 18% FBS, the cells were cultured for 67 hours in HamF-12 media containing 10% FBS with various concentrations of HN polypeptides; and cell death was measured by trypan blue exclusion assay. ALS-associated mutant cDNAs of SOD1 were also similarly transfected, and examined for their neurotoxicity.
as §1

[3] = tested on: F11 cells transfected with FAD genes (V642I APP, NL-APP, M146L PS-1, N141I PS-2); assay: FAD gene-induced F11 cell death, trypan blue exclusion assay; format: cell-based, rat/mouse hybrid; conditions: for suppression of FAD gene-induced cell death: 10 nM polypeptide; for neuroprotective activity relative to HNG: all types of cell death (FAD genes, Aβ)
Procedure: as §2, §1

[4] = tested on: F11/EcR cells transfected with ecdysone-inducible Q79 plasmid; assay: Polyglutamine Q79-induced F11/EcR cell death (ecdysone-inducible), trypan blue exclusion assay; format: cell-based; conditions: 1 μM polypeptide, 72 hours
Procedure: F11/EcR cell experiment using ecdysone was conducted as follows: F11/EcR cells were seeded at 7×10^4/well into a 6-well plate; cultured for 12 to 16 hours in HamF-12 media containing 18% FBS; and were similarly transfected in the absence of serum for 3 hours with 1 μg of ecdysone-inducible plasmid alone, or with 1 μg of HN-encoding plasmid, as mentioned above. After culturing for 12 to 16 hours in HamF-12 media containing 18% FBS, the cells were cultured for 2 hours in HamF-12 media containing 10% FBS, then ecdysone (Ponasterone) was added to the media (final concentration of 40 μM). Cell death was measured 72 hours after ecdysone treatment. Experiments using synthetic HN polypeptides were conducted as follows: cells were similarly transfected for 3 hours with FAD genes in the absence of serum; cultured for 12 to 16 hours in HamF-12 media containing 18% FBS; cultured for 2 hours in HamF-12 media containing 10% FBS and various concentrations of HN polypeptide; and then, 40 μM Ponasterone was added to the media. Cell death was measured by trypan blue exclusion assay after 72 hours from the ecdysone treatment. HD/SCA-associated Q79 cDNAs were also similarly transfected, and the neurotoxicity was tested.
(§3) Trypan blue exclusion assay was performed as follows. […] Within 3 minutes of the trypan blue solution addition, stained cells were counted. Cell mortality was determined [100-cell survival rate (%)] based on the stained cell count. […] Specifically, 6 μM Calcein-AM (3′, 6′-Di-(O-acetyl)-2′-7′-bis[N,N-bis(carboxymethyl)aminomethyl]fluorescein, tetraacetoxymethyl ester; Dojindo, Cat. #349-07201) was added to the neurons; and 30 minutes or longer after Calcein-AM treatment, fluorescence (ex=490 nm, em=515 nm) was observed by fluorescence microscopy, and measured by a spectrometer. Specific fluorescence was calculated by subtracting basal fluorescence from total fluorescence. Basal fluorescence was assigned to be the value calculated from linear trypan blue positivity-fluorescence intensity relationship, corresponding to 100% trypan blue positivity.

[5] = tested on: F11 cells transfected with SOD1 mutants (A4T, G85R, G93A); assay: ALS-associated SOD1 mutant-induced F11 cell death, trypan blue exclusion assay; format: cell-based, rat/mouse hybrid; conditions: 100 μM polypeptide
Procedure: as §2
as §3, with “Basal fluorescence was assigned to be the value calculated from linear trypan blue positivity-fluorescence intensity relationship, corresponding to 100% trypan blue positivity.” left out

| Substance | effect on Aβ1-43-induced cell death [1] | suppression of FAD gene-induced cell death [3] | suppression of V642I APP-induced cell death [2] | neuroprotective activity relative to HNG [3] | also measured |
| --- | --- | --- | --- | --- | --- |
| MAPRGFSCLLLLTGEIDLPVKRRA [sHNG] | completely protected |  |  |  | IC50 ([2]; 72 h): ~100 pM; concentration giving complete antagonizing effect on V642I APP-induced cell death ([2]; synthetic polypeptide, 72 hours): ≤ 10 nM; concentration showing significant or sufficient neuroprotective action [3]: about 1 nM; concentration giving complete suppression of cell death ([3]; NL-APP, M146L PS-1, N141I PS-2): ≤ 10 nM; concentration giving complete antagonism/rescue of neuronal death ([3]; all four types of FAD genes): ≤ 10 nM; effect on Q79-induced cell death, synthetic polypeptide [4]: Extensive cell death; effect on SOD1 mutant-induced cell death, synthetic polypeptide [5]: couldn't be suppressed |
| MAPRGFSCRLLLTSEIDLPVKRRA [sHNR] |  |  |  |  | cell mortality (%) ([2]; V642I APP cDNA, treated with 10 μM sHN polypeptides, 72 hours, mean ±S.D.): 17.7 ± 2.2 % |
| PRGFSCLLLLTGEIDLP [HNG-17] | completely antagonize | completely antagonize |  |  | cell mortality ([1]; 25 μM Aβ1-43, 72 hours, mean ±S.D.): 28.8±2.3% |
| SEQ ID NO: 46: HNG with Cys at position 8 substituted with His (MAPRGFSHLLLLTGEIDLPVKRRA) | suppressed cell death | inhibited neuronal death | significant suppression activity | slight decrease in the cell death suppression activity |  |
| SEQ ID NO: 48: HNG with Cys at position 8 substituted with Lys (MAPRGFSKLLLLTGEIDLPVKRRA) | suppressed cell death | inhibited neuronal death | significant suppression activity | comparable to the original HNG polypeptide |  |
| SEQ ID NO: 54: HNG with Cys at position 8 substituted with Arg (MAPRGFSRLLLLTGEIDLPVKRRA) | suppressed cell death | inhibited neuronal death | significant suppression activity | comparable to the original HNG polypeptide |  |
